Data as given in US10168342B2, “Lipid probes and uses thereof” (THE SCRIPPS RESEARCH INSTITUTE, priority 2015, dated 2019).

Columns and labels:
Assay in all cases: isoTOP-ABPP mapping of AEA-DA-modified peptides in Neuro2a cells
Type in all cases: cell-based
[1] = molecular target: T1, AEA-DA-modified peptides in Neuro2a cells (Mus musculus, UniProt O09061); conditions: AEA-DA-modified peptide PSMB1 O09061 127-146, SEQ ID NO 90; probe 100 μM, 12 replicates
T1 construct: endogenous in cells; host or cells: Neuro2a

[2] = molecular target: T2, AEA-DA-modified peptides in Neuro2a cells (Mus musculus, UniProt Q9DC61); conditions: AEA-DA-modified peptide PMPCA Q9DC61 428-451, SEQ ID NO 88; probe 100 μM, 12 replicates
T2 construct: endogenous in cells; host or cells: Neuro2a

[3] = molecular target: T3, AEA-DA-modified peptides in Neuro2a cells (Mus musculus, UniProt Q8BH04); conditions: AEA-DA-modified peptide PCK2 Q8BH04 245-262, SEQ ID NO 79; probe 100 μM, 12 replicates
T3 construct: endogenous in cells; host or cells: Neuro2a

[4] = molecular target: T4, AEA-DA-modified peptides in Neuro2a cells (Mus musculus, UniProt P57780); conditions: AEA-DA-modified peptide ACTN4 P57780 839-855, SEQ ID NO 4; probe 100 μM, 12 replicates
T4 construct: endogenous in cells; host or cells: Neuro2a

[5] = molecular target: T5, AEA-DA-modified peptides in Neuro2a cells (Mus musculus, UniProt Q9D8V0); conditions: AEA-DA-modified peptide HM13 Q9D8V0 62-74, SEQ ID NO 48; probe 100 μM, 12 replicates
T5 construct: endogenous in cells; host or cells: Neuro2a

[6] = molecular target: T6, AEA-DA-modified peptides in Neuro2a cells (Mus musculus, UniProt P61759); conditions: AEA-DA-modified peptide VBP1 P61759 153-178, SEQ ID NO 119; probe 100 μM, 12 replicates
T6 construct: endogenous in cells; host or cells: Neuro2a

[7] = molecular target: T7, AEA-DA-modified peptides in Neuro2a cells (Mus musculus, UniProt P59325); conditions: AEA-DA-modified peptide EIF5 P59325 272-287, SEQ ID NO 36; probe 100 μM, 12 replicates
T7 construct: endogenous in cells; host or cells: Neuro2a

[8] = molecular target: T8, AEA-DA-modified peptides in Neuro2a cells (Mus musculus, UniProt Q61335); conditions: AEA-DA-modified peptide BCAP31 Q61335 73-80, SEQ ID NO 21; probe 100 μM, 12 replicates
T8 construct: endogenous in cells; host or cells: Neuro2a

[9] = molecular target: T9, AEA-DA-modified peptides in Neuro2a cells (Mus musculus, UniProt Q9CZS1); conditions: AEA-DA-modified peptide ALDH1B1 Q9CZS1 119-147, SEQ ID NO 8; probe 100 μM, 12 replicates
T9 construct: endogenous in cells; host or cells: Neuro2a

[10] = molecular target: T10, AEA-DA-modified peptides in Neuro2a cells (Mus musculus, UniProt Q61425); conditions: AEA-DA-modified peptide HADH Q61425 250-272, SEQ ID NO 47; probe 100 μM, 12 replicates
T10 construct: endogenous in cells; host or cells: Neuro2a

[11] = molecular target: T11, AEA-DA-modified peptides in Neuro2a cells (Mus musculus, UniProt Q8BJ03); conditions: AEA-DA-modified peptide COX15 Q8BJ03 317-331, SEQ ID NO 25; probe 100 μM, 12 replicates
T11 construct: endogenous in cells; host or cells: Neuro2a

[12] = molecular target: T12, AEA-DA-modified peptides in Neuro2a cells (Mus musculus, UniProt P20029); conditions: probe 100 μM, 12 replicates
T12 construct: endogenous in cells; host or cells: Neuro2a
T12 sequence (P20029 20-655): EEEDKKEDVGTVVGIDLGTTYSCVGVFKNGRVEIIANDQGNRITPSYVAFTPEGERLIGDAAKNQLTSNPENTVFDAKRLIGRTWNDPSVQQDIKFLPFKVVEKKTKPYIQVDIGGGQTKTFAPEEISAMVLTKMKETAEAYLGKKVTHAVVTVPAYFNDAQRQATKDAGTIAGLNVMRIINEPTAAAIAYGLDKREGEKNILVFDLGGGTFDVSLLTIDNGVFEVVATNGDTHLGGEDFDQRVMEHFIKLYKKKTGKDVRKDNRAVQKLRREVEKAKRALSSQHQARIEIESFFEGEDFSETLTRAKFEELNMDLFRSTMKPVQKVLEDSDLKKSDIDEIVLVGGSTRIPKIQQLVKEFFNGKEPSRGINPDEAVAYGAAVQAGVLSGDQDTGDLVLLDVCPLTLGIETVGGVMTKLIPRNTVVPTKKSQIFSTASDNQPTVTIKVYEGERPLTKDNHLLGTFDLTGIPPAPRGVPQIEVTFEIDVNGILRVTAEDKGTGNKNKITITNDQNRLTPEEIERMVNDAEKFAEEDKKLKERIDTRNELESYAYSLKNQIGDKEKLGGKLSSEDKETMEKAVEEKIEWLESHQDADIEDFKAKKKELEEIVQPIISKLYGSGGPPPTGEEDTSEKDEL

T3 sequence (Q8BH04 33-640): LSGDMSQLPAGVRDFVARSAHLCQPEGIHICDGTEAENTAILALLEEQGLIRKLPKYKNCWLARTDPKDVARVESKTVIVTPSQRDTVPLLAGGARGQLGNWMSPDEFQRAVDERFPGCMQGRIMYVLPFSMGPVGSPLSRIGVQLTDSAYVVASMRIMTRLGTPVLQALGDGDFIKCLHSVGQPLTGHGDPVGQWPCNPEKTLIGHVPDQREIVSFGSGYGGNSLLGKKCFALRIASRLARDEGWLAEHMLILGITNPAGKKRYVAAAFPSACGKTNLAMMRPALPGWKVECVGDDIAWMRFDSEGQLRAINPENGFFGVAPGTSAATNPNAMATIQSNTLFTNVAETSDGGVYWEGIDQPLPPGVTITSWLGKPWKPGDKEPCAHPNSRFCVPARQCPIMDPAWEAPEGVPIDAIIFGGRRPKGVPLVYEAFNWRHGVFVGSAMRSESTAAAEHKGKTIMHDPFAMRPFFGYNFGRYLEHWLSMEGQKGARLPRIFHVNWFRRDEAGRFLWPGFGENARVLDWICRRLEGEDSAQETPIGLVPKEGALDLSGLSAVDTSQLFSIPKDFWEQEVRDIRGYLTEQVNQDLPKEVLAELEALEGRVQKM
T8 sequence (Q61335 whole entry): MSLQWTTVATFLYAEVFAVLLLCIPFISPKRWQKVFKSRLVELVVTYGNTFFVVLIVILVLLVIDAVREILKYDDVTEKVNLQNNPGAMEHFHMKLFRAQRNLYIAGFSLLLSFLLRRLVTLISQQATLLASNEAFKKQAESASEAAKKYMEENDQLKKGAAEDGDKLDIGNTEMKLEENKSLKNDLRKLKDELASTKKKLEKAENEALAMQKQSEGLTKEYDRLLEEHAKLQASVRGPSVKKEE
T7 sequence (P59325 whole entry): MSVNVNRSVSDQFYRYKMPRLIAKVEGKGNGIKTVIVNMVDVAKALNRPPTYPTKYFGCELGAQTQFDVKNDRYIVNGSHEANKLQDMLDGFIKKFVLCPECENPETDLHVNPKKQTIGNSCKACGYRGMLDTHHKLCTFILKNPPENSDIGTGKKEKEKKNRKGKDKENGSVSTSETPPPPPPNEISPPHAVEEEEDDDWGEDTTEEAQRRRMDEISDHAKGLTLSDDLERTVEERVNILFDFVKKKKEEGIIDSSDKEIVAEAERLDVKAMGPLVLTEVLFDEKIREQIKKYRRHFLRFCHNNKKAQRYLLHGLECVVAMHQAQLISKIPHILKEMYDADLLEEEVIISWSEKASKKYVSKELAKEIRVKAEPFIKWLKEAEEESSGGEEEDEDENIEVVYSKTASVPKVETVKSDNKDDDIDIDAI
T4 sequence (P57780 whole entry): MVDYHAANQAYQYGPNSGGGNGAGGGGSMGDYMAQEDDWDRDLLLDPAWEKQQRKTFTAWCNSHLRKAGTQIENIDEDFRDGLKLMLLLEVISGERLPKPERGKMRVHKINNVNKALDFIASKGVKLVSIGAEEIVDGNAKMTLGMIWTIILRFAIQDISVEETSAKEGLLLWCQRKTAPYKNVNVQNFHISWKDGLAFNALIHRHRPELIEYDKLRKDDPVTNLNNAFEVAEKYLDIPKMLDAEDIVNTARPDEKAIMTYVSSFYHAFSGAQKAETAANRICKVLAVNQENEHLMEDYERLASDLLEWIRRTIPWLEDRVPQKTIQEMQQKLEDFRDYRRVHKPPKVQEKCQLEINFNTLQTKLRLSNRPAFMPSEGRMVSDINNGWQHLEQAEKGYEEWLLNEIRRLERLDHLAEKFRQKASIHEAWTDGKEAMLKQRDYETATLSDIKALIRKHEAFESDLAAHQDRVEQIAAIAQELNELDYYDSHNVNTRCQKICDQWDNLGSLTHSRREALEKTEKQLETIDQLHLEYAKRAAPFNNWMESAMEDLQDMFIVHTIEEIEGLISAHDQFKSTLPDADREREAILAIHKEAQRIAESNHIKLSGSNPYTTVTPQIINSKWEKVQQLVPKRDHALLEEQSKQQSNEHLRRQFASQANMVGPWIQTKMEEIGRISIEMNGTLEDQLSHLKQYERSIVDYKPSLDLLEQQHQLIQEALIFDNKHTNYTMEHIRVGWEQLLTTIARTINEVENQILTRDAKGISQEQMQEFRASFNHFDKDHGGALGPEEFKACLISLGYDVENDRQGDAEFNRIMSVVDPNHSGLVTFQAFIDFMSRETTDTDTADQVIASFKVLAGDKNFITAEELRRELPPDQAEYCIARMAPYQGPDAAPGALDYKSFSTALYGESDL
T6 sequence (P61759 whole entry): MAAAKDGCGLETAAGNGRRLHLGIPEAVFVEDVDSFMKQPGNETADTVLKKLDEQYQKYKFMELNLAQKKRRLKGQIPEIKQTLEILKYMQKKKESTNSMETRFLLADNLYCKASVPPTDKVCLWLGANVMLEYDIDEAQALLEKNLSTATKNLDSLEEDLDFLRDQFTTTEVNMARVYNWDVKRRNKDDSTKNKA
T1 sequence (O09061 28-240): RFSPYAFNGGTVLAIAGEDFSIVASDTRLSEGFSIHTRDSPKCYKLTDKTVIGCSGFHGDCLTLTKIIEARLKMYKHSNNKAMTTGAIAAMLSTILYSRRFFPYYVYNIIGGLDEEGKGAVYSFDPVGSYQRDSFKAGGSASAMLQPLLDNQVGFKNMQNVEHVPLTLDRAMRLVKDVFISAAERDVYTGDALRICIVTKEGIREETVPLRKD
T11 sequence (Q8BJ03 whole entry): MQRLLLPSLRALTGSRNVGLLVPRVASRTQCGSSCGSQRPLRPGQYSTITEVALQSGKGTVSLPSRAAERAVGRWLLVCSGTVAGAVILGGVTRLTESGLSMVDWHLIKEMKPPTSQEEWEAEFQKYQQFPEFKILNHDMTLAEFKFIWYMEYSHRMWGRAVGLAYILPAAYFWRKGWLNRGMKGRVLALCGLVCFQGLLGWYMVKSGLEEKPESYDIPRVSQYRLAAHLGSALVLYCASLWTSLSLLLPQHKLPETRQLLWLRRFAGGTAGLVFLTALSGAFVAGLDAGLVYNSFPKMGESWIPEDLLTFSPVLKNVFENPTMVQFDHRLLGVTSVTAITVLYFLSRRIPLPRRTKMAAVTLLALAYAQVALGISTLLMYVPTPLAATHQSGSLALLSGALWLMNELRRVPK
T9 sequence (Q9CZS1 20-519): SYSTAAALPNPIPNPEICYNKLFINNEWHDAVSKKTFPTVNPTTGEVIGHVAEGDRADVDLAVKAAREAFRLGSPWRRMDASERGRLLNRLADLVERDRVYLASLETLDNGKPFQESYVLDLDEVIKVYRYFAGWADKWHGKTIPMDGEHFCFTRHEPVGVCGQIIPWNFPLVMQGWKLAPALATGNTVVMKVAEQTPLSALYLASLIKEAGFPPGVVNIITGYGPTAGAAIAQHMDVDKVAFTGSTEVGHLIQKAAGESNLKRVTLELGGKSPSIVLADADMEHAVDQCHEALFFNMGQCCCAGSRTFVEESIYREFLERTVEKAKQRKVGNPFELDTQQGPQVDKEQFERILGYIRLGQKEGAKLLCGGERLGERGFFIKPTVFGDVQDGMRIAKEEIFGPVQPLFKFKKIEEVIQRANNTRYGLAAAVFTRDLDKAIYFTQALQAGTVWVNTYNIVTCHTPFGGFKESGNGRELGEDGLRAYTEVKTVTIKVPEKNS
T10 sequence (Q61425 13-314): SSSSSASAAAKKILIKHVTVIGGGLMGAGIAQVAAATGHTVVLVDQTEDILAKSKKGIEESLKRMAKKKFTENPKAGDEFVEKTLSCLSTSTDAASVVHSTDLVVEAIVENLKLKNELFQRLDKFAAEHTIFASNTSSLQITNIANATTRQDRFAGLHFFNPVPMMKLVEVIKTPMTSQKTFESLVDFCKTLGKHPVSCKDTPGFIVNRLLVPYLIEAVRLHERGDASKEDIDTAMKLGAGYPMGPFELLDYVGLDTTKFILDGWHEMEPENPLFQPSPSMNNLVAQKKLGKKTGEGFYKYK
T2 sequence (Q9DC61 34-524): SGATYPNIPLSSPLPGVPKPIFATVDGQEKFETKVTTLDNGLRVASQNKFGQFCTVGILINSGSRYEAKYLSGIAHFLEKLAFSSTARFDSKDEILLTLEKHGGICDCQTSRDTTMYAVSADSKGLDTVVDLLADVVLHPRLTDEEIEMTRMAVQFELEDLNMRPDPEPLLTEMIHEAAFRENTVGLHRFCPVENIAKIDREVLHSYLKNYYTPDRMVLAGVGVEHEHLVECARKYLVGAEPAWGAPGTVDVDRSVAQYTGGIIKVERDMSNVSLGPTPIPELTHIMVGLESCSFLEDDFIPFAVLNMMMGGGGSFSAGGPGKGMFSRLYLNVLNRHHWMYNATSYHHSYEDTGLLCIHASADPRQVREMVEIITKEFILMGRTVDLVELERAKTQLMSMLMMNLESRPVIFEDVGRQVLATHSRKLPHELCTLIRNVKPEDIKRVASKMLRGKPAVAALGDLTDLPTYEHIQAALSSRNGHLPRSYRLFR

SMILES: C#CCCCC1(CC/C=C\C/C=C\C/C=C\CCCC(=O)NCCO)N=N1 [AEA-DA, (5Z,8Z,11Z)-N-(2-hydroxyethyl)-14-(3-(pent-4-yn-1-yl)-3H-diazirin-3-yl)tetradeca-5,8,11-trienamide]
- Times observed [1]: 8
- Times observed [2]: 7
- Times observed [3]: 12
- Times observed [4]: 2
- Times observed [5]: 12
- Times observed [6]: 2
- Times observed [7]: 12
- Times observed [8]: 2
- Times observed [9]: 4
- Times observed [10]: 10
- Times observed [11]: 2
- Times observed ([12]; AEA-DA-modified peptide HSPA5 P20029 466-476, SEQ ID NO 52): 8
- Times observed ([12]; AEA-DA-modified peptide HSPA5 P20029 635-656, SEQ ID NO 53): 4
